Experimental data from PubChem BioAssay AID330 (DTP/NCI, 2004).
Values joined by “and” are separate entries in the source; they are usually repeats but may differ in a detail not shown here. Equal entries are not always repeated. Toxic doses and inconclusive results are not listed.

Tested on: P388 leukemia ip, CD2F1 mice, survival T/C
Assay: NCI In Vivo Anticancer Drug Screen. Data for tumor model P388 Leukemia (intraperitoneal) in CD2F1 (CDF1) mice
Conditions: endpoint: median survival time, higher = longer survival
Summary of the method: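 Mice carrying the transplanted tumor received test compound or vehicle. Survival was recorded in each group, and the value is the treated-group measurement divided by that of the vehicle-treated control group.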

[1] = dose: 100.0 mg/kg/injection, schedule: Q01DX009 (ip), vehicle: Klucel (hydroxypropylcellulose) (HPC)
[2] = dose: 50.0 mg/kg/injection, schedule: Q01DX005 (ip), vehicle: Klucel (hydroxypropylcellulose) (HPC)
[3] = dose: 100.0 mg/kg/injection, schedule: Q01DX005 (ip), vehicle: Klucel (hydroxypropylcellulose) (HPC)
[4] = dose: 200.0 mg/kg/injection, schedule: Q01DX005 (ip), vehicle: Klucel (hydroxypropylcellulose) (HPC)
[5] = dose: 25.0 mg/kg/injection, schedule: Q01DX005 (ip), vehicle: Klucel (hydroxypropylcellulose) (HPC)
[6] = dose: 50.0 mg/kg/injection, schedule: Q01DX005 (ip), vehicle: saline with Tween-80
[7] = dose: 100.0 mg/kg/injection, schedule: Q01DX005 (ip), vehicle: saline with Tween-80
[8] = dose: 100.0 mg/kg/injection, schedule: Q04DX003 (ip), vehicle: saline
[9] = dose: 200.0 mg/kg/injection, schedule: Q04DX003 (ip), vehicle: saline
[10] = dose: 400.0 mg/kg/injection, schedule: Q04DX003 (ip), vehicle: saline
[11] = dose: 25.0 mg/kg/injection, schedule: Q01DX009 (ip), vehicle: saline with Tween-80
[12] = dose: 50.0 mg/kg/injection, schedule: Q01DX009 (ip), vehicle: saline with Tween-80
[13] = dose: 200.0 mg/kg/injection, schedule: Q01DX005 (ip), vehicle: saline with Tween-80

Cc1ccc(S(=O)(=O)OC[C@@H]2CCCC[C@H]2COS(=O)(=O)c2ccc(C)cc2)cc1
T/C [1]: 98 % of control | T/C (dose: 200.0 mg/kg/injection, schedule: Q01DX009 (ip), vehicle: Klucel (hydroxypropylcellulose) (HPC)): 98 % of control | T/C (dose: 400.0 mg/kg/injection, schedule: Q01DX009 (ip), vehicle: Klucel (hydroxypropylcellulose) (HPC)): 98 % of control

O=S(=O)(O)C1=CC(=N\Cl)/C=CC/1=N/Cl
T/C (dose: 25.0 mg/kg/injection, schedule: Q01DX005 (ip), vehicle: saline + Tween-80 + alcohol): 100 % of control and 113 % of control | T/C (dose: 50.0 mg/kg/injection, schedule: Q01DX005 (ip), vehicle: saline + Tween-80 + alcohol): 107 % of control and 113 % of control and 119 % of control | T/C (dose: 100.0 mg/kg/injection, schedule: Q01DX005 (ip), vehicle: saline + Tween-80 + alcohol): 111 % of control and 117 % of control | T/C (dose: 200.0 mg/kg/injection, schedule: Q01DX005 (ip), vehicle: saline + Tween-80 + alcohol): 116 % of control and 120 % of control

O=c1c2ccccc2cc2n1CCN2
T/C [2]: 96 % of control | T/C [3]: 112 % of control | T/C [4]: 107 % of control

CN1CN(C)CN(Cc2ccc([N+](=O)[O-])cc2)C1
T/C [5]: 93 % of control | T/C [2]: 97 % of control | T/C [3]: 94 % of control | T/C [4]: 91 % of control

NC(CCC(=O)NC(CS)C(=O)NCC(=O)O)C(=O)O.[CH2-]CCC.[CH2-]CCC.[CH2-]CCC.[CH2-]CCC.[Ti+4] (configuration not stated)
T/C [6]: 103 % of control | T/C [7]: 89 % of control

COc1ccccc1C1C2CCCC(C2O)C(c2ccccc2OC)N1C (configuration not stated)
T/C [8]: 99 % of control and 92 % of control | T/C (dose: 100.0 mg/kg/injection, schedule: Q04DX003 (ip), vehicle: suspension in saline): 100 % of control | T/C [9]: 98 % of control and 102 % of control | T/C (dose: 200.0 mg/kg/injection, schedule: Q04DX003 (ip), vehicle: suspension in saline): 107 % of control | T/C [10]: 98 % of control and 94 % of control | T/C (dose: 400.0 mg/kg/injection, schedule: Q04DX003 (ip), vehicle: suspension in saline): 99 % of control

CSC(SC)(SC)c1cc(C)no1
T/C (dose: 60.0 mg/kg/injection, schedule: Q01DX005 (ip), vehicle: saline with Tween-80): 111 % of control | T/C (dose: 120.0 mg/kg/injection, schedule: Q01DX005 (ip), vehicle: saline with Tween-80): 102 % of control | T/C (dose: 240.0 mg/kg/injection, schedule: Q01DX005 (ip), vehicle: saline with Tween-80): 104 % of control

Cn1cccc1/C=N/N1CC(=O)N(c2ccccc2)CC1=O
T/C [6]: 108 % of control | T/C [7]: 100 % of control

O=C(O)/C=C/S(=O)(=O)c1ccc(Cl)cc1
T/C (dose: 5.0 mg/kg/injection, schedule: Q01DX009 (ip), vehicle: Klucel (hydroxypropylcellulose) (HPC)): 89 % of control | T/C (dose: 10.0 mg/kg/injection, schedule: Q01DX009 (ip), vehicle: Klucel (hydroxypropylcellulose) (HPC)): 98 % of control | T/C (dose: 20.0 mg/kg/injection, schedule: Q01DX009 (ip), vehicle: Klucel (hydroxypropylcellulose) (HPC)): 96 % of control | T/C (dose: 40.0 mg/kg/injection, schedule: Q01DX009 (ip), vehicle: Klucel (hydroxypropylcellulose) (HPC)): 99 % of control

O=C(/C=C/c1ccc(Cl)c(Cl)c1)c1ccc(Cl)cc1
T/C (dose: 12.5 mg/kg/injection, schedule: Q01DX009 (ip), vehicle: saline with Tween-80): 100 % of control | T/C [11]: 100 % of control | T/C [12]: 100 % of control

CCCC(=O)NN(Cn1c(=S)sc2ccccc21)Cn1c(=S)sc2ccccc21
T/C [2]: 101 % of control | T/C [3]: 90 % of control | T/C [4]: 93 % of control

Nc1ccc([N+](=O)[O-])cc1Nc1c2ccccc2nc2ccccc12
T/C (dose: 50.0 mg/kg/injection, schedule: Q01DX009 (ip), vehicle: Klucel (hydroxypropylcellulose) (HPC)): 108 % of control | T/C [1]: 107 % of control

CC(=O)C(=Cc1ccc(OC2OC(CO)C(O)C(O)C2O)cc1)C(C)=O (configuration not stated)
T/C (dose: 60.0 mg/kg/injection, schedule: Q01DX005 (ip), vehicle: saline): 100 % of control | T/C (dose: 120.0 mg/kg/injection, schedule: Q01DX005 (ip), vehicle: saline): 100 % of control | T/C (dose: 240.0 mg/kg/injection, schedule: Q01DX005 (ip), vehicle: saline): 98 % of control

COc1cc([C@@H]2c3cc(OC(C)=O)c(OC)cc3C[C@@H]3C(=O)OC[C@@H]23)ccc1OC(C)=O
T/C [6]: 98 % of control | T/C [7]: 93 % of control | T/C [13]: 93 % of control

CCCCCCCC(=O)N/N=C/c1ccc(O)c(OCC)c1
T/C [6]: 95 % of control | T/C [7]: 90 % of control

CCCCN1COCO[C@H]2CCC[C@@H]21
T/C (dose: 100.0 mg/kg/injection, schedule: Q04DX002 (ip), vehicle: Klucel (hydroxypropylcellulose) (HPC)): 118 % of control | T/C (dose: 200.0 mg/kg/injection, schedule: Q04DX002 (ip), vehicle: Klucel (hydroxypropylcellulose) (HPC)): 122 % of control

COc1ccc2c(c1)CN(C)CO2
T/C [6]: 103 % of control | T/C [7]: 102 % of control | T/C [13]: 107 % of control

Cc1ccc(NCCCC2CCCN3CCCCC23)c2c(=O)c3cc(O)ccc3sc12 (configuration not stated)
T/C (dose: 25.0 mg/kg/injection, schedule: Q01DX001 (ip), vehicle: saline with Tween-80): 99 % of control | T/C (dose: 50.0 mg/kg/injection, schedule: Q01DX001 (ip), vehicle: saline with Tween-80): 98 % of control | T/C (dose: 100.0 mg/kg/injection, schedule: Q01DX001 (ip), vehicle: saline with Tween-80): 100 % of control

Nc1nc(=S)c2ncn(C3OC(CO)CC3O)c2[nH]1 (configuration not stated)
T/C (dose: 26.4 mg/kg/injection, schedule: Q04DX003 (ip), vehicle: saline): 122 % of control | T/C (dose: 150.0 mg/kg/injection, schedule: Q04DX003 (ip), vehicle: saline): 116 % of control

COc1ccc(-c2csc(=[N+]3CCCCC3)s2)cc1
T/C (dose: 3.13 mg/kg/injection, schedule: Q01DX009 (ip), vehicle: water): 100 % of control | T/C (dose: 6.25 mg/kg/injection, schedule: Q01DX009 (ip), vehicle: water): 105 % of control and 110 % of control

CC(/C=C/c1ccc(C)cc1)=N\NC(N)=S
T/C (dose: 1.5 mg/kg/injection, schedule: Q01DX005 (ip), vehicle: Klucel + Tween-80): 99 % of control | T/C (dose: 3.0 mg/kg/injection, schedule: Q01DX005 (ip), vehicle: Klucel + Tween-80): 105 % of control | T/C (dose: 6.0 mg/kg/injection, schedule: Q01DX005 (ip), vehicle: Klucel + Tween-80): 105 % of control | T/C (dose: 6.0 mg/kg/injection, schedule: Q01DX005 (ip), vehicle: saline): 112 % of control

CS(=O)(=O)OCCCCCCCCCCCC1C=CCC1 (configuration not stated)
T/C [8]: 94 % of control | T/C [9]: 93 % of control | T/C [10]: 94 % of control

COc1ccc2c(c1)c(COC(C)=O)c(C)c[n+]2[O-]
T/C [2]: 100 % of control | T/C [3]: 104 % of control | T/C [4]: 88 % of control

CC(C)N=c1sc(-c2ccccc2)c(C#N)c(=O)n1C(C)C
T/C [11]: 101 % of control | T/C [12]: 103 % of control | T/C (dose: 100.0 mg/kg/injection, schedule: Q01DX009 (ip), vehicle: saline with Tween-80): 103 % of control

Cc1c2ccncc2c(O)c2c3ccccc3n(C)c12
T/C (dose: 12.5 mg/kg/injection, schedule: Q01DX005 (ip), vehicle: Klucel (hydroxypropylcellulose) (HPC)): 108 % of control | T/C [5]: 110 % of control | T/C [2]: 108 % of control

COc1cc2c(cc1OC)-c1c(C)c3ccc(OC)c(NCCO)c3c[n+]1CC2
T/C (dose: 50.0 mg/kg/injection, schedule: Q04DX003 (ip), vehicle: water): 102 % of control | T/C (dose: 100.0 mg/kg/injection, schedule: Q04DX003 (ip), vehicle: water): 107 % of control

COc1ccc(N=Nc2c(-c3cccs3)nn(C(N)=S)c2C(F)(F)F)cc1
T/C [2]: 97 % of control | T/C [3]: 95 % of control | T/C [4]: 97 % of control

NS(=O)(=O)c1ccc(N=NC2C(=O)N(C(=O)CC(=O)Nc3ccc(C(=O)O)cc3)N=C2c2ccccc2)cc1 (configuration not stated)
T/C [6]: 97 % of control | T/C [7]: 92 % of control | T/C [13]: 90 % of control

CC(C)COc1cccc2[oH+]c(C(=O)[O-])cc(=O)c12.CC(C)COc1cccc2[oH+]c(C(=O)[O-])cc(=O)c12.[Cu+2]
T/C (dose: 12.5 mg/kg/injection, schedule: Q04DX002 (ip), vehicle: saline with Tween-80): 104 % of control | T/C (dose: 25.0 mg/kg/injection, schedule: Q04DX002 (ip), vehicle: saline with Tween-80): 95 % of control | T/C (dose: 50.0 mg/kg/injection, schedule: Q04DX002 (ip), vehicle: saline with Tween-80): 94 % of control

O=S(=O)(O)O.[Co+3].[Co+3].[NH2-].[NH2-].[NH2-].[NH2-].[NH2-].[NH2-].[NH2-].[NH2-].[NH2-].[NH2-].[O-][O-]
T/C (dose: 25.0 mg/kg/injection, schedule: Q01DX009 (ip), vehicle: saline): 96 % of control
